In patent US4795826A, “Ortho-phenylenediamine compounds” (priority 1986, dated 1989):

Tests used:
[1] = test system: P388 leukemia; assay: P388 leukemia in vivo (increase in lifespan of mice, i.p. tumour); settings: for ILSmax (percentage increase in lifespan), marked * / ILSmax (percentage increase in lifespan): P388, at OD on days 1, 5, 9, >20% statistically significant; for active (P388): P388, at the stated dose; for ILSmax (percentage increase in lifespan): values without asterisk, controls 11 days
[2] = test system: Lewis lung carcinoma; assay: Lewis lung carcinoma in vivo (increase in lifespan of mice, i.v. tumour); settings: Lewis lung; for ILS (percentage increase in lifespan) / ILS (percentage increase in lifespan), marked *: at OD on days 1, 5, 9, >40% statistically significant; for ILS (percentage increase in lifespan): values without asterisk, controls 17 days; for active (Lewis lung): at the stated dose

CNc1cc(NC(=O)OC)ccc1Nc1c2ccc(Cl)cc2nc2c(C)cccc12 [Compound 56]
ILSmax (percentage increase in lifespan), marked * [1]: 151% | active (P388) [1]: Y | ILS (percentage increase in lifespan) [2]: 100% | active (Lewis lung) [2]: Y

CNc1cc(NS(C)(=O)=O)ccc1Nc1c2ccc(Br)cc2nc2c(C)cccc12 [Compound 21]
ILSmax (percentage increase in lifespan) [1]: 122% | active (P388) [1]: Y

CNC(=O)c1cccc2c(Nc3ccc(NS(C)(=O)=O)cc3NC)c3cccc(C)c3nc12 [Compound 24]
ILSmax (percentage increase in lifespan) [1]: 94% | active (P388) [1]: Y

CNc1cc(NS(C)(=O)=O)ccc1Nc1c2ccccc2nc2cc(F)ccc12 [Compound 5]
ILSmax (percentage increase in lifespan), marked * [1]: 157% | active (P388) [1]: Y

CNc1cc(NS(C)(=O)=O)ccc1Nc1c2cccc(OC)c2nc2c(OC)cccc12 [Compound 26]
ILSmax (percentage increase in lifespan) [1]: 84% | active (P388) [1]: Y

CNC(=O)c1cccc2c(Nc3ccc(NS(C)(=O)=O)cc3NC)c3ccccc3nc12 [Compound 15]
ILSmax (percentage increase in lifespan) [1]: 82% | active (P388) [1]: Y

CNc1cc(NS(C)(=O)=O)ccc1Nc1c2ccc(C)cc2nc2c(OC)cccc12 [Compound 22]
ILSmax (percentage increase in lifespan) [1]: 122% | active (P388) [1]: Y

CNc1cc(NS(=O)(=O)c2ccc(N)cc2)ccc1Nc1c2ccccc2nc2ccccc12 [Compound 62]
ILSmax (percentage increase in lifespan) [1]: 104% | active (P388) [1]: Y

CNc1cc(NS(C)(=O)=O)ccc1Nc1c2ccccc2nc2cc([N+](=O)[O-])ccc12 [Compound 9]
ILSmax (percentage increase in lifespan) [1]: 70% | active (P388) [1]: Y

CNc1cc(NS(C)(=O)=O)ccc1Nc1c2ccccc2nc2cc(Cl)ccc12 [Compound 6]
ILSmax (percentage increase in lifespan), marked * [1]: 149% | active (P388) [1]: Y

CNc1cc(NC(=O)OC)ccc1Nc1c2ccc(Br)cc2nc2c(C)cccc12 [Compound 57]
ILSmax (percentage increase in lifespan) [1]: 97% | active (P388) [1]: Y | ILS (percentage increase in lifespan), marked * [2]: 82% | active (Lewis lung) [2]: Y

CNc1cc(NC(=O)OC)ccc1Nc1c2ccccc2nc2cc(Br)ccc12 [Compound 55]
ILSmax (percentage increase in lifespan) [1]: 101% | active (P388) [1]: Y

CS(=O)(=O)Nc1ccc(Nc2c3ccccc3nc3cc(Br)ccc23)c(NCCO)c1 [Compound 28]
ILSmax (percentage increase in lifespan) [1]: 117% | active (P388) [1]: Y

CNc1cc(NS(=O)(=O)c2ccc(N)cc2)ccc1Nc1c2ccccc2nc2c(C)cccc12 [Compound 64]
ILSmax (percentage increase in lifespan) [1]: 139% | active (P388) [1]: Y

Cc1cccc2c(Nc3ccc(NS(C)(=O)=O)cc3NCCO)c3ccccc3nc12 [Compound 29]
ILSmax (percentage increase in lifespan), marked * [1]: 159% | active (P388) [1]: Y

CN(C)c1cc(NS(C)(=O)=O)ccc1Nc1c2ccccc2nc2ccccc12 [Compound 32]
ILSmax (percentage increase in lifespan), marked * [1]: 212% | active (P388) [1]: Y | cured animals ([2]; at OD): all cured | ILS (percentage increase in lifespan) [2]: > 250% | active (Lewis lung) [2]: Y

COC(=O)Nc1ccc(Nc2c3ccccc3nc3ccccc23)c(NCCO)c1 [Compound 51]
ILSmax (percentage increase in lifespan) [1]: 121% | active (P388) [1]: Y

CNc1cc(NC(=O)OC)ccc1Nc1c2ccccc2nc2c(C)cccc12 [Compound 58]
ILSmax (percentage increase in lifespan) [1]: 114% | active (P388) [1]: Y | ILS (percentage increase in lifespan), marked * [2]: 48% | active (Lewis lung) [2]: Y

CNc1cc(NP(=O)(OC)OC)ccc1Nc1c2ccccc2nc2cc(Br)ccc12 [Compound 48]
ILSmax (percentage increase in lifespan) [1]: 77% | active (P388) [1]: Y

CS(=O)(=O)Nc1ccc(Nc2c3ccccc3nc3ccccc23)c(NCCO)c1 [Compound 27]
ILSmax (percentage increase in lifespan) [1]: 89% | active (P388) [1]: Y

Cc1cccc2c(Nc3ccc(NS(C)(=O)=O)cc3NCC(O)CO)c3ccccc3nc12 (stereo not drawn) [Compound 31]
ILSmax (percentage increase in lifespan) [1]: 83% | active (P388) [1]: Y

CNc1cc(NP(=O)(OC)OC)ccc1Nc1c2ccccc2nc2c(C)cccc12 [Compound 49]
ILSmax (percentage increase in lifespan) [1]: 91% | active (P388) [1]: Y

O=S(=O)(Nc1ccc(Nc2c3ccccc3nc3ccccc23)c(NCCO)c1)c1ccccc1 [Compound 61]
ILSmax (percentage increase in lifespan) [1]: 81% | active (P388) [1]: Y

CNc1cc(NC(=O)OC)ccc1Nc1c2ccccc2nc2cc(F)ccc12 [Compound 53]
ILSmax (percentage increase in lifespan) [1]: 110% | active (P388) [1]: Y

Nc1ccc(S(=O)(=O)Nc2ccc(Nc3c4ccccc4nc4ccccc34)c(NCCO)c2)cc1 [Compound 65]
ILSmax (percentage increase in lifespan) [1]: 50% | active (P388) [1]: Y

CNc1cc(NS(C)(=O)=O)ccc1Nc1c2ccc(OC)cc2nc2c(C)cccc12 [Compound 17]
ILSmax (percentage increase in lifespan) [1]: 102% | active (P388) [1]: Y

CNc1cc(NS(=O)(=O)c2ccccc2)ccc1Nc1c2ccccc2nc2ccccc12 [Compound 60]
ILSmax (percentage increase in lifespan) [1]: 117% | active (P388) [1]: Y

COC(=O)Nc1ccc(Nc2c3ccccc3nc3ccccc23)c(N(C)C)c1 [Compound 59]
ILSmax (percentage increase in lifespan) [1]: 51% | active (P388) [1]: Y

CNc1cc(NS(C)(=O)=O)ccc1Nc1c2ccccc2nc2c(OC)cccc12 [Compound 13]
ILSmax (percentage increase in lifespan), marked * [1]: 118% | active (P388) [1]: Y | ILS (percentage increase in lifespan) [2]: 153% | active (Lewis lung) [2]: Y

CNc1cc(NS(C)(=O)=O)ccc1Nc1c2ccc(F)cc2nc2c(C)cccc12 [Compound 18]
ILSmax (percentage increase in lifespan), marked * [1]: 152% | active (P388) [1]: Y | ILS (percentage increase in lifespan), marked * [2]: 143% | active (Lewis lung) [2]: Y

CNc1cc(NC(=O)OC)ccc1Nc1c2ccccc2nc2cc(C)ccc12 [Compound 52]
ILSmax (percentage increase in lifespan) [1]: 86% | active (P388) [1]: Y

CNC(=O)c1cccc2c(Nc3ccc(NS(C)(=O)=O)cc3NC)c3ccc(Cl)cc3nc12 [Compound 23]
ILSmax (percentage increase in lifespan) [1]: 59% | active (P388) [1]: Y

CNc1cc(NS(C)(=O)=O)ccc1Nc1c2ccccc2nc2cc(Br)ccc12 [Compound 7]
ILSmax (percentage increase in lifespan) [1]: 94% | active (P388) [1]: Y

CNc1cc(NS(C)(=O)=O)ccc1Nc1c2ccc(Cl)cc2nc2c(OC)cccc12 [Compound 20]
ILSmax (percentage increase in lifespan) [1]: 105% | active (P388) [1]: Y

CS(=O)(=O)Nc1ccc(Nc2c3ccccc3nc3ccccc23)c(NCC(O)CO)c1 (stereo not drawn) [Compound 30]
ILSmax (percentage increase in lifespan) [1]: 84% | active (P388) [1]: Y

CNc1cc(NS(=O)(=O)c2ccc(N)cc2)ccc1Nc1c2ccccc2nc2cc(Br)ccc12 [Compound 63]
ILSmax (percentage increase in lifespan) [1]: 115% | active (P388) [1]: Y

CNc1cc(NS(C)(=O)=O)ccc1Nc1c2ccccc2nc2cc(I)ccc12 [Compound 8]
ILSmax (percentage increase in lifespan) [1]: 80% | active (P388) [1]: Y

CNc1cc(NS(C)(=O)=O)ccc1Nc1c2ccc(Cl)cc2nc2c(C)cccc12 [Compound 19]
ILSmax (percentage increase in lifespan), marked * [1]: 128% | active (P388) [1]: Y | ILS (percentage increase in lifespan) [2]: 126% | active (Lewis lung) [2]: Y

CNc1cc(NC(=O)OC)ccc1Nc1c2ccccc2nc2cc(Cl)ccc12 [Compound 54]
ILSmax (percentage increase in lifespan) [1]: 104% | active (P388) [1]: Y

CN(CCO)c1cc(NS(C)(=O)=O)ccc1Nc1c2ccccc2nc2ccccc12 [Compound 45]
ILSmax (percentage increase in lifespan), marked * [1]: 100% | active (P388) [1]: Y

CNc1ccc2c(Nc3ccc(NS(C)(=O)=O)cc3NC)c3ccccc3nc2c1 [Compound 10]
ILSmax (percentage increase in lifespan), marked * [1]: 208% | active (P388) [1]: Y

CNc1cc(NS(C)(=O)=O)ccc1Nc1c2ccccc2nc2cc(OC)ccc12 [Compound 4]
ILSmax (percentage increase in lifespan), marked * [1]: 140% | active (P388) [1]: Y

CNc1cc(NS(C)(=O)=O)ccc1Nc1c2ccc(C)cc2nc2c(C)cccc12 [Compound 16]
ILSmax (percentage increase in lifespan) [1]: 92% | active (P388) [1]: Y

CNc1cc(NS(C)(=O)=O)ccc1Nc1c2ccccc2nc2cc(NC(=O)OC)ccc12 [Compound 11]
ILSmax (percentage increase in lifespan), marked * [1]: 135% | active (P388) [1]: Y

CNc1cc(NS(C)(=O)=O)ccc1Nc1c2cccc(C)c2nc2c(C)cccc12 [Compound 25]
ILSmax (percentage increase in lifespan) [1]: 107% | active (P388) [1]: Y

CNc1cc(NS(C)(=O)=O)ccc1Nc1c2ccccc2nc2cc(C)ccc12 [Compound 3]
ILSmax (percentage increase in lifespan) [1]: 83% | active (P388) [1]: Y

Cc1cccc2c(Nc3ccc(NS(C)(=O)=O)cc3N(C)CCO)c3ccccc3nc12 [Compound 46]
ILSmax (percentage increase in lifespan), marked * [1]: 152% | active (P388) [1]: Y

CNc1cc(NC(=O)OC)ccc1Nc1c2ccccc2nc2ccccc12 [Compound 50]
ILSmax (percentage increase in lifespan) [1]: 132% | active (P388) [1]: Y | ILS (percentage increase in lifespan), marked * [2]: 122% | active (Lewis lung) [2]: Y

CNc1cc(NP(=O)(OC)OC)ccc1Nc1c2ccccc2nc2ccccc12 [Compound 47]
ILSmax (percentage increase in lifespan) [1]: 118% | active (P388) [1]: Y

CNc1cc(NC(=O)Oc2ccccc2)ccc1Nc1c2ccccc2nc2ccccc12 [Compound 66]
ILSmax (percentage increase in lifespan) [1]: 71% | active (P388) [1]: Y
